Measurements as given in ChEMBL document CHEMBL4813937, “Jatrophane Diterpenoids from Euphorbia peplus as Multidrug Resistance Modulators with Inhibitory Effects on the ATR-Chk-1 Pathway” (J Nat Prod, 2021).
Active and inactive are the calls of the source. No cut-off for these calls is given here.

Experiments:
[1] = Inhibition of ATR/Chk1 pathway in human A549 cells assessed as suppression of […]-induced phosphorylation of Chk1 on serine-345 residue at 20 uM incubated for 12 hrs by Western blotting analysis; type: cell-based
A549 = assay: Induction of apoptosis in human A549 cells assessed as increase in PARP cleavage at 25 uM incubated for 48 hrs by Western blotting analysis; type: functional, cell-based

Structure (SMILES) | inhibition [1] | Activity (A549)
C=C1[C@H](OC(C)=O)[C@@H](OC(C)=O)[C@@H](OC(C)=O)C(C)(C)/C=C/[C@H](C)[C@H](OC(C)=O)[C@@]2(O)C[C@@](C)(OC(C)=O)[C@H](OC(=O)c3ccccc3)[C@@H]2[C@H]1OC(C)=O | Active | –
C=C1[C@H](OC(C)=O)CC(=O)C(C)(C)/C=C/[C@H](C)C(=O)[C@@]2(O)C[C@@](C)(O)[C@H](OC(=O)c3ccccc3)[C@@H]2[C@H]1OC(C)=O | Active | –
C=C1[C@H](OC(C)=O)[C@H]2[C@@H](OC(=O)c3ccccc3)[C@](C)(OC(C)=O)C[C@]2(O)C(=O)[C@@H](C)/C=C/C(C)(C)C(=O)[C@H](OC(C)=O)[C@H]1OC(C)=O | Active | –
C=C1[C@H](OC(=O)C(C)C)[C@@H](OC(C)=O)[C@@H](OC(C)=O)C(C)(C)/C=C/[C@H](C)[C@H](OC(C)=O)[C@@]2(O)C[C@@](C)(OC(C)=O)[C@H](OC(=O)c3ccccc3)[C@@H]2[C@H]1OC(C)=O | Active | –
C=C1[C@H](OC(C)=O)[C@H]2[C@@H](OC(=O)c3ccccc3)[C@](C)(O)C[C@]2(O)C(=O)[C@@H](C)/C=C/C(C)(C)C(=O)[C@H](OC(C)=O)[C@H]1OC(C)=O | Active | –
CC[C@@]1(O)C(=O)OCc2c1cc1n(c2=O)Cc2cc3ccccc3nc2-1 | – | inactive
